Experimental data: US12514836B2, “Composition for prevention and treatment of myopathy” (ONCOCROSS CO., LTD., priority 2020, dated 2026)

Assays:
MHC and myogenin = experiment: Western blot of myoblast differentiation markers in C2C12 cells; type: cell-based, mouse; settings: 500 μM H2O2, vs DMSO group, FIG. 4
Description: (§1) At this time, 500 μM of H2O2 (hydrogen peroxide) was treated with the differentiation medium to create conditions for inhibiting differentiation. Thereafter, the differentiation medium containing H2O2 and the drugs were exchanged every 2 days. After 4 to 6 days, when the shape of myotubes was confirmed, the myotubes were added with 80 μl of a lysis buffer and then vortexed, and centrifuged for 10 minutes at 14000 rpm, and the obtained proteins were added with a 5× sample buffer and reacted in 95° C. boiling water for 5 minutes. 8 μg of the reacted proteins was loaded on 8% and 12% SDS-PAGE gels, developed, and then transferred to a membrane. The membrane was blocked with PBST containing 5% skim milk at room temperature for 1 hour. The membrane was washed with 1×PBST, added with a primary antibody diluted at 1:1000, and then O/N reacted at 4° C. The next day, the membrane was washed with 1×PBST three times every 10 minutes, added with a secondary antibody diluted at 1:5000 in PBST containing 5% skim milk, and then reacted at room temperature for 1 hour. The membrane was washed with 1×PBST three times every 10 minutes, reacted in an enhanced chemiluminescent solution (ECL), and then exposed to an X-ray film to obtain a Western blot analysis result.

4-EBP = experiment: Western blot of AKT/mTOR pathway sub-signal 4-EBP in C2C12 cells; type: cell-based, mouse; settings: 10 μM, 500 μM H2O2, FIG. 4
Description: as §1

SOD1 G93A mice = experiment: Duration of life of Lou Gehrig (ALS) animal model mice; type: in vivo, mouse
Description: The presence of symptoms and mortality were confirmed through a daily behavioral test set.

C2C12 cells = experiment: Myoblast differentiation of C2C12 cells seen by microscope under differentiation-suppressing condition (H2O2); type: cell-based, mouse; settings: 10 μM, 500 μM H2O2, FIG. 3
[1] = tested on: MSCs derived from MDX mice; experiment: Proliferation of muscle satellite cells (MSCs) derived from MDX mice; type: cell-based, mouse; settings: 100 μM, 48 hours, vs PBS control, FIG. 6
Description: In MDX mice (Jackso lab, stock no. 001801) (including point mutations in a DMD gene), as the most popular experimental model for testing Duchenne muscular dystrophy, older MDX mice over 40 weeks of age that maintained a homogenous transgenic state through mating and breeding and wild-type mice (normal mice) were anesthetized with isoflurane and then both tibialis anterior (TA) muscles were punctured 30 times each with a 26 G syringe (Korea Vaccine, Cat no. 27-00024-01) to induce physical muscle destruction. On day 3 after inducing muscle destruction, the mice were sacrificed and the TA muscles were separated, washed with 1×PBS (137 mM NaCl, 2.7 mM KCl, 10 mM Na2HPO4, […]) twice, and then chopped for 5 minutes with a razor blade, added in serum-free DMEM (GE healthcare, Cat no. SH30243.01) diluted with collagenase II (ThermoFisher, Cat no. 17101015) to a concentration of 2 mg/ml and digested for 1 hour. Thereafter, a supernatant was removed by centrifugation at 300×g for 5 minutes, washed once with serum-free DMEM, and passed through a 70 μm strainer. […] In the experiment, the average and each standard deviation of measurement results of three or more times were obtained, and significance with the control was determined through T testing (*: […].<0.001).

p70S6K = experiment: Western blot of AKT/mTOR pathway sub-signal p70S6K in C2C12 cells; type: cell-based, mouse; settings: 10 μM, 500 μM H2O2, FIG. 4
Description: as §1

SMILES	expression levels of MHC and myogenin (MHC and myogenin; 5 μM)	expression levels of MHC and myogenin (MHC and myogenin; 10 μM)	expression of 4-EBP compared to the control group (DMSO) (4-EBP)	total median duration of life compared to the drug non-administered group (SOD1 G93A mice; 30 mpk (combination each 30 mpk), intraperitoneally from 10 weeks old, FIG. 1)	prolongation of median duration of life after the appearance of Lou Gehrig's symptoms (SOD1 G93A mice; 30 mpk intraperitoneally from 10 weeks old, non-administered group about 5 weeks, FIG. 2)	prolongation of duration of life converted to Lou Gehrig's patients (SOD1 G93A mice; extrapolated: 5 weeks in mice taken as about 2 years median duration of life in patients)	myoblast differentiation (C2C12 cells)	proliferation of MSCs derived from MDX mice [1]	expression of P70S6K (p70S6K)
CN(C)CCOC(c1ccccc1)c1ccccc1.Cn1c(=O)c2[nH]c(Cl)nc2n(C)c1=O [OC-501, dimenhydrinate]	increased	increased							
CC(C)(CO)[C@@H](O)C(=O)NCCC(=O)O [OC-504, calcium pantothenate]		increased	increased	increased statistically significantly	about 2 weeks	about 9.6 months	significantly increased	significantly promoted	increased
